Here are results for 70 compounds from ChEMBL document CHEMBL5604063, “ASAP - DENV-2 NS2B-NS3 protease fluorescence dose response” (2024).

pIC50: −log10 of the molar value. “And” between values parts separate entries of the source, which are not always exact repeats. Equal values may be shown once.

Assay [1] has as its target T1, Genome polyprotein (dengue virus type 2, UniProt P29990). Format: functional, Thailand/16681/1984.
Assay [2] addresses T1, Genome polyprotein. Format: functional, Thailand/16681/1984. This is another data set of the same source.

The pIC50 is the negative decadic logarithm of the IC50, by convention in mol/L.

T1 sequence (P29990 1346-1475 limits assumed): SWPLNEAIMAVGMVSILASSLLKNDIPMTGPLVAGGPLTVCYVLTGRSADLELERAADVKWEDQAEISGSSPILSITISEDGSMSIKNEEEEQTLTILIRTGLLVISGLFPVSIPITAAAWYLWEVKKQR
T1 sequence (P29990 1476-2093 limits assumed): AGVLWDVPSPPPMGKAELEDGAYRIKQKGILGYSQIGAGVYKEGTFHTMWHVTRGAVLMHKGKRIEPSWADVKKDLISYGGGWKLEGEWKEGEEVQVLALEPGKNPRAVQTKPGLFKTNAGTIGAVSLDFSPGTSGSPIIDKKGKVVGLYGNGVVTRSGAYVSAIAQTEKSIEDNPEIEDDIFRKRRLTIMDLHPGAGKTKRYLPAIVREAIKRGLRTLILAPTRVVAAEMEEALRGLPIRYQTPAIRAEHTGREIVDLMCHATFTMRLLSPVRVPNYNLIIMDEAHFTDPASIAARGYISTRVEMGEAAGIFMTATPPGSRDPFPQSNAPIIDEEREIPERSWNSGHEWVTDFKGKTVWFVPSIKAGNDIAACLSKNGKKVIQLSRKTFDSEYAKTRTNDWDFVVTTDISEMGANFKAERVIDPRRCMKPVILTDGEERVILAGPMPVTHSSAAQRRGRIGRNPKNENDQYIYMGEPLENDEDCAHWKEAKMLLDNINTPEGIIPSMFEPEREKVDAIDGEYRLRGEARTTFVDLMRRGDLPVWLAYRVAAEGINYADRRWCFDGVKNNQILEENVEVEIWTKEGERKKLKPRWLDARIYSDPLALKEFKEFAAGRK

On to `Cc1ncc(-c2cc(F)cc(C(=O)Nc3ccc4c(c3)CNC4)c2)o1`, for which the pIC50 in assay [1] and in assay [2] was below 4.00 throughout.
As for `O=C(Nc1cc(-c2cccnc2)ccn1)c1cc2n(n1)CCO2`, the pIC50 in assay [1] and in assay [2] was below 4.00 throughout.
In the case of `CO[C@H]1C[C@H](n2cc3c(C(=O)Nc4ccc5c(c4)CNC5)cc(Cl)cc3n2)C1`, the pIC50 in assay [1] and in assay [2] was below 4.00 in each case.
For the compound `O=C(Nc1cc(-c2cccnc2)ccn1)c1csc(C[C@H]2CCNC2)n1`, the pIC50 in assay [1] and in assay [2] was below 4.00 each time.
In the case of `O=C(Nc1cc(-c2cccnc2)ccn1)c1cc2n(n1)CCC2`, the pIC50 in assay [1] and in assay [2] was below 4.00 each time.
With `CNC(=O)[C@H](Nc1cc(Cl)cc2[nH]ncc12)c1ccc2c(c1)CNC2`, the pIC50 in assay [1] and in assay [2] was below 4.00 each time.
As for `Cc1c(C(=O)Nc2cc(-c3cccnc3)ccn2)cc(C2CCCC2)n1C`, the pIC50 in assay [1] and in assay [2] was below 4.00 throughout.
For `C=CC[C@H]1NCc2cc(N[C@H](C(=O)NC(C)C)c3cccc4[nH]ncc34)ccc21`, the pIC50 in assay [1] and in assay [2] was below 4.00 throughout.
For `O=C(Nc1cc(-c2cccnc2)ccn1)c1csc(C[C@H]2CCCNC2)n1`, the pIC50 in assay [1] and in assay [2] was below 4.00 throughout.
Take `Cc1c(C(=O)Nc2cc(-c3cccnc3)ccn2)cnn1C1CC1`: the pIC50 in assay [1] and in assay [2] was below 4.00 in each case.
For the compound `O=C(Nc1ccc2c(c1)CN[C@H]2C[C@H](O)CO)c1cc(F)cc2[nH]ncc12`, the pIC50 in assay [1] was 4.63 and 4.66; in assay [2], 4.40.
Turning to `O=C(Nc1cc([C@H]2CCOC2)ccn1)c1cc(F)cc2[nH]ccc12`, the pIC50 in assay [1] and in assay [2] was below 4.00 each time.
With `O=C(Nc1cc(-c2cccnc2)ccn1)c1cccc(C2CC2)c1`, the pIC50 in assay [1] and in assay [2] was below 4.00 in each case.
On to `NC[C@H]1OCCc2sc(C(=O)Nc3cc(-c4cccnc4)ccn3)cc21`, for which the pIC50 in assay [1] and in assay [2] was below 4.00 each time.
With `O=C(Nc1ccc2c(c1)CNC2)c1cc(Cl)cc2[nH]c(COc3ccccn3)nc12`, the pIC50 in assay [1] is 4.70 and 4.77; in assay [2], below 4.00.
Consider `CN(C)c1nc(-c2cc(F)cc(C(=O)Nc3ccc4c(c3)CNC4)c2)cs1`, for which the pIC50 in assay [1] and in assay [2] was below 4.00 each time.
For `O=C(Nc1cc([C@H]2CCOC2)ccn1)c1cc(F)cc2[nH]ncc12`, the pIC50 in assay [1] and in assay [2] was below 4.00 each time.
With `Nc1n[nH]c2cc(C(=O)Nc3ccc4c(c3)CNC4)ccc12`, the pIC50 in assay [1] and in assay [2] was below 4.00 in each case.
As to `CCCn1cc2c(C(=O)Nc3ccc4c(c3)CNC4)cc(Cl)cc2n1`, the negative-log IC50 (pIC50) in assay [1] and in assay [2] was below 4.00 in each case.
For `O=C(Nc1cc([C@H]2CCOC2)ccn1)c1ccc2scnc2c1`, the pIC50 in assay [1] and in assay [2] was below 4.00 throughout.
Take `O=C(Nc1ccc2c(c1)CNC2)c1cc(Cl)cc2[nH]c(CN3CCCC3=O)cc12`: the pIC50 in assay [1] and in assay [2] was below 4.00 in each case.
For the compound `Cc1c(C(=O)Nc2cc(-c3cccnc3)ccn2)cc(-c2ccccc2)n1C`, the pIC50 in assay [1] and in assay [2] was below 4.00 each time.
For the compound `Cc1cc(C(=O)Nc2cc(-c3cccnc3)ccn2)c(C)n1C`, the negative logarithm of the IC50 (pIC50) in assay [1] and in assay [2] was below 4.00 throughout.
Regarding `O=C(Nc1cc(-c2cccnc2)ccn1)c1nnc(C2CC2)s1`, the pIC50 in assay [1] and in assay [2] was below 4.00 throughout.
`O=C1CCc2c(cccc2C(=O)Nc2ccc3c(c2)CNC3)N1`: the pIC50 in assay [1] and in assay [2] was below 4.00 throughout.
As to `CCCCNC(=O)[C@H](Nc1ccc2c(c1)CNC2)c1cc(Cl)cc(C2CC2)c1`, the pIC50 in assay [1] and in assay [2] was below 4.00 throughout.
For `O=C(Nc1cc(-c2cccnc2)ccn1)c1cn([C@H]2CCCNC2)nn1`, the pIC50 in assay [1] and in assay [2] was below 4.00 throughout.
Turning to `O=C(Nc1ccc2c(c1)CS(=O)(=O)C2)c1cc(Cl)cc2[nH]ncc12`, the pIC50 in assay [1] and in assay [2] was below 4.00 each time.
`Cc1c(C(=O)Nc2cc(SC3COC3)ccn2)cc(C2CC2)n1C`: the pIC50 in assay [1] and in assay [2] was below 4.00 throughout.
With `O=S(=O)(Nc1ccc2c(c1)CNC2)c1cccc2[nH]ncc12`, the pIC50 in assay [1] and in assay [2] was below 4.00 in each case.
Consider `O=C(Nc1ccc2c(c1)CNC2)c1cc(F)cc(-c2cccnc2)c1`, for which the pIC50 in assay [1] and in assay [2] was below 4.00 each time.
As to `O=C(NCC(F)F)[C@H](Nc1ccc2c(c1)CNC2)c1cc(Br)cc2[nH]ccc12`, the pIC50 in assay [1] and in assay [2] was below 4.00 each time.
`O=C1Cc2c(cccc2C(=O)Nc2cc([C@H]3CCOC3)ccn2)N1`: the pIC50 in assay [1] and in assay [2] was below 4.00 throughout.
With `O=C(Nc1ccc2c(c1)CNC2)c1cc(Cl)cc2[nH]c(-c3cnccc3O)nc12`, the figures for the pIC50 in assay [1] and in assay [2] were below 4.00 and 4.43, respectively.
For `O=C(Nc1cc(-c2cccnc2)ccn1)c1ccc(C2CC2)cc1`, in that order: below 4.00 and below 4.00.
For `O=C(Nc1ccc2c(c1)CNC2)c1cc(F)cc(-c2c[nH]c(=O)c(F)c2)c1`, in that order: below 4.00 and below 4.00.
On to `COc1cc(C(=O)Nc2ccc3c(c2)CNC3)cc2cnn(C)c12`, for which the pIC50 in assay [1] and in assay [2] was below 4.00 in each case.
Take `Cc1oc(C2CC2)nc1C(=O)Nc1cc(-c2cccnc2)ccn1`: the pIC50 in assay [1] and in assay [2] was below 4.00 in each case.
Regarding `Cc1c(C(=O)Nc2cccc(-c3cccnc3)c2)cc(C2CC2)n1C`, the pIC50 in assay [1] and in assay [2] was below 4.00 each time.
With `O=C(Nc1cc([C@H]2CCOC2)ccn1)c1cc(Cl)cc2[nH]ncc12`, the pIC50 in assay [1] and in assay [2] was below 4.00 each time.
In the case of `CC(C)NC(=O)[C@H](Nc1ccc2c(c1)CNC2)c1cccc2cn[nH]c12`, the pIC50 in assay [1] and in assay [2] was below 4.00 in each case.
Consider `O=C(Nc1cc2c(cc1C1CC1)CNC2)c1cc(F)cc2[nH]ncc12`, for which the pIC50 in assay [1] was 4.20; in assay [2], 4.15.
The like results for `Cc1c(C(=O)Nc2ccnc(O[C@H]3CCOC3)c2)cc(C2CC2)n1C` were, in that order, below 4.00 and below 4.00.
As for `O=C(Nc1ccc2c(c1)CNC2)c1cc(F)cc(/C=C/c2ccccc2)c1`, the figures for the pIC50 in assay [1] and in assay [2] were 4.24 and 4.38, respectively.
The like results for `O=C(NCC(F)F)[C@H](Nc1ccc2c(c1)CNC2)c1cc(Cl)cc2[nH]ncc12` were, in that order, below 4.00 and below 4.00.
The like results for `Cn1ncc2c(C(=O)Nc3ccc4c(c3)CNC4)cc(Cl)cc21` were, in that order, below 4.00 and below 4.00.
The like results for `COCCNC(=O)[C@H](Nc1cccc([C@H]2CCOC2)c1)c1cc(F)cc2[nH]ccc12` were, in that order, below 4.00 and below 4.00.
For `C=CC[C@H]1NCc2cc(NC(=O)c3cc(F)cc4c3CC(=O)N4)ccc21`, the pIC50 in assay [1] was 4.50 and 4.63; in assay [2] it was 4.50.
For `Cc1cnccc1-c1cc(NC(=O)c2cc(F)cc3[nH]ncc23)cc2c1CNC2`, the figures for the pIC50 in assay [1] and in assay [2] were 4.18 and below 4.00, respectively.
`O=C(Nc1cc([C@H]2CCOC2)ccn1)c1cc(Br)cc2[nH]ccc12`: the pIC50 in assay [1] and in assay [2] was below 4.00 in each case.
As for `O=C(Nc1ccc2c(c1)CNC2)c1ccc2ccncc2c1`, the pIC50 in assay [1] and in assay [2] was below 4.00 each time.
`O=C(Nc1ccc2c(c1)CNC2)c1cc(Cl)cc2nn(C3CCC3)cc12`: the pIC50 in assay [1] is 4.05; in assay [2], below 4.00.
The like results for `Cn1cc2c(C(=O)Nc3ccc4c(c3)CNC4)cc(Cl)cc2n1` were, in that order, below 4.00 and below 4.00.
The like results for `O=C(Nc1cc([C@H]2CCOC2)ccn1)c1cc(F)c2[nH]ccc2c1` were, in that order, below 4.00 and below 4.00.
Turning to `CSCCNC(=O)[C@H](Nc1ccc2c(c1)CNC2)c1cc(Cl)cc(C2CC2)c1`, the pIC50 in assay [1] and in assay [2] was below 4.00 in each case.
For `CS(=O)(=O)N1CC[C@]2(C1)C(=O)Nc1cccc(C(=O)Nc3ccc4c(c3)CNC4)c12`, the pIC50 in assay [1] and in assay [2] was below 4.00 each time.
`COc1ccc([C@H]2C[C@H](C)CN2C(=O)Nc2ccc3c(c2)CNC3)cc1`: the negative-log IC50 (pIC50) in assay [1] and in assay [2] was below 4.00 each time.
In the case of `Cc1c(C(=O)Nc2cc(-c3cccnc3)ccn2)cc(CC(C)(C)C)n1C`, the pIC50 in assay [1] and in assay [2] was below 4.00 in each case.
Turning to `CSCCCNC(=O)[C@H](Nc1ccc2c(c1)CNC2)c1cc(Cl)cc(C2CC2)c1`, the pIC50 in assay [1] and in assay [2] was below 4.00 in each case.
For `O=C(Nc1ccc2c(c1)CNC2)c1cc(F)cc(-c2ccnn2CC2CC2)c1`, the pIC50 in assay [1] and in assay [2] was below 4.00 throughout.
On to `CC(C)(C)c1noc2nc(C(=O)Nc3ccc4c(c3)CNC4)ccc12`, for which the pIC50 in assay [1] and in assay [2] was below 4.00 throughout.
For the compound `O=C(Nc1ccc2c(c1)CNC2)c1cc(F)cc2nn(-c3ccccn3)nc12`, the pIC50 in assay [1] is 5.39 and 5.41; in assay [2], 5.30 and 5.37.
For the compound `O=C(Nc1cc(-c2cccnc2)ccn1)c1c[nH]c2ncccc12`, the pIC50 in assay [1] and in assay [2] was below 4.00 in each case.
Turning to `COCCCNC(=O)[C@H](Nc1ccc2c(c1)CNC2)c1cc(Cl)cc(C2CC2)c1`, the pIC50 in assay [1] and in assay [2] was below 4.00 in each case.
Take `Cc1c(C(=O)Nc2cccc(-c3ccccc3)c2)cc(C2CC2)n1C`: the pIC50 in assay [1] and in assay [2] was below 4.00 in each case.
With `O=C(Nc1ccc2c(c1)CNC2)c1ccc2c(Br)csc2c1`, the negative logarithm of the IC50 (pIC50) in assay [1] was below 4.00; in assay [2] it was 4.23.
The like results for `C=C[C@H]1NCc2cc(NC(=O)c3cc(F)cc4[nH]ncc34)ccc21` were, in that order, 4.47 and 4.06.
For `CC(C)(C)OC(=O)N1Cc2ccc(NC(=O)c3ccc4c(Br)csc4c3)cc2C1`, in that order: below 4.00 and below 4.00.
In the case of `Nc1nc2c(Br)cc(C(=O)Nc3ccc4c(c3)CNC4)cc2s1`, the pIC50 was 4.29 and 4.43 in assay [1]; 4.55 in assay [2].
Regarding `Cc1c(C(=O)Nc2cc(-c3ccccc3)ccn2)cc(C2CC2)n1C`, the pIC50 in assay [1] and in assay [2] was below 4.00 in each case.
